Experimental data from patent publication US20260167615A1, “COMPOUNDS AND COMPOSITIONS AS GPR52 MODULATORS” (Neurocrine Biosciences, Inc., priority 2022, published 2026).
pEC50: −log10 of the molar value.

Target: recombinant human GPR52 (Homo sapiens, UniProt Q9Y2T5)
Assay: HTRF cAMP assay, GPR52 activity (Example A)
Assay type: cell-based
Conditions: for pEC50: average EC50 (n=1 to 15), Flp-In-CHO cells stably expressing recombinant human GPR52, cAMP HTRF, read-out: EC50 (N=); for Emax: maximum cAMP at 10 μM or 31.6 μM test compound, as percentage of Emax of control compound 4-(3-(3-fluoro-5-(trifluoromethyl)benzyl)-5-methyl-4,5-dihydro-1H-1,2,4-triazol-1-yl)-2-methylbenzamide
In short: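 Flp-In CHO cells stably expressing human GPR52 (20,000/well) incubated 30 min at room temperature with compound, cAMP then quantified by competitive HTRF. EC50 from nonlinear fits of cAMP-transformed data normalized to positive control; Emax is top plateau at 10 or 31.6 μM, given as % of a reference agonist's Emax.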

Sequence of recombinant human GPR52 (Q9Y2T5 whole entry): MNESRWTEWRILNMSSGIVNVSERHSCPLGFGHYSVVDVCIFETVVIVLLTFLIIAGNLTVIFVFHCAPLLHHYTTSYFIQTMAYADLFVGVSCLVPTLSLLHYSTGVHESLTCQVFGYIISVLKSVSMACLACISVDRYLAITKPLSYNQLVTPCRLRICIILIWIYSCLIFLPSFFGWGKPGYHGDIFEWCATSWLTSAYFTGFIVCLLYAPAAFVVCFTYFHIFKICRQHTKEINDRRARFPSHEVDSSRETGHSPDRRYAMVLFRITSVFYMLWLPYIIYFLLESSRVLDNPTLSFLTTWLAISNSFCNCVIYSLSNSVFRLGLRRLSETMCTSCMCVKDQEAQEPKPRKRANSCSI

SMILES | pEC50 | Emax [%]
Cc1cc(-c2cc(Oc3cnc4ccc(F)cc4c3)ccn2)ccc1C(N)=O [Example 105, 4-(4-((6-fluoroquinolin-3-yl)oxy)pyridin-2-yl)-2-methylbenzamide] | 6.00 to 7.00 | 51
CCc1cc(-c2cc(Oc3cnc4c(C)nn(C)c4c3)cc(N)n2)ccc1C(N)=O [Example 16, 4-(6-amino-4-((1,3-dimethyl-1H-pyrazolo[4,3-b]pyridin-6-yl)oxy)pyridin-2-yl)-2-ethylbenzamide] | 6.00 to 7.00 | 107
CCc1cc(-c2cc(Oc3ccc4ncccc4c3)ccn2)ccc1C(N)=O [Example 70, 2-ethyl-4-(4-(quinolin-6-yloxy)pyridin-2-yl)benzamide] | 6.00 to 7.00 | 126
CCc1cc(-c2cc(Oc3ccc4c(c3)c(C)nn4C)ccn2)ccc1C(N)=O [Example 57, 4-(4-((1,3-dimethyl-1H-indazol-5-yl)oxy)pyridin-2-yl)-2-ethylbenzamide] | 7.00 to 7.60 | 104
Cc1cc(-c2cccc(Oc3cnc4c(C)nn(C)c4c3)c2)ccc1C(N)=O [Example 31, 3′-((1,3-dimethyl-1H-pyrazolo[4,3-b]pyridin-6-yl)oxy)-3-methyl-[1,1′-biphenyl]-4-carboxamide] | 6.00 to 7.00 | 88
CCc1cc(-c2cc(Oc3cnc4cnn(C)c4c3)cc(N)n2)ccc1C(N)=O [Example 17, 4-(6-amino-4-((1-methyl-1H-pyrazolo[4,3-b]pyridin-6-yl)oxy)pyridin-2-yl)-2-ethylbenzamide] | 6.00 to 7.00 | 102
CCc1cc(-c2cc(Oc3cc(F)c4cnn(C)c4c3)cc(N)n2)ccc1C(N)=O [Example 20, 4-(6-amino-4-((4-fluoro-1-methyl-1H-indazol-6-yl)oxy)pyridin-2-yl)-2-ethylbenzamide] | 6.00 to 7.00 | 111
Cc1cc(-c2cc(Oc3cnc4c(F)cccc4c3)ccn2)ccc1C(N)=O [Example 103, 4-(4-((8-fluoroquinolin-3-yl)oxy)pyridin-2-yl)-2-methylbenzamide] | 6.00 to 7.00 | 60
Cc1cc(-c2cc(Oc3cnc4cnn(C)c4c3)ccn2)ccc1C(N)=O [Example 12, 2-methyl-4-(4-((1-methyl-1H-pyrazolo[4,3-b]pyridin-6-yl)oxy)pyridin-2-yl)benzamide] | 6.00 to 7.00 | 103
Cn1ncc2ncc(Oc3ccnc(-c4ccc(C(N)=O)c(C(F)(F)F)c4)c3)cc21 [Example 33, 4-(4-((1-methyl-1H-pyrazolo[4,3-b]pyridin-6-yl)oxy)pyridin-2-yl)-2-(trifluoromethyl)benzamide] | 6.00 to 7.00 | 90
CCc1cc(-c2cc(Oc3cc(F)c4cnn(C)c4c3)ccn2)ccc1C(N)=O [Example 36, 2-ethyl-4-(4-((4-fluoro-1-methyl-1H-indazol-6-yl)oxy)pyridin-2-yl)benzamide] | > 7.60 | 105
Cc1cc(-c2cncc(Oc3ccc4cnn(C)c4c3)n2)ccc1C(N)=O [Example 11, 2-methyl-4-(6-((1-methyl-1H-indazol-6-yl)oxy)pyrazin-2-yl)benzamide] | 6.00 to 7.00 | 101
CCc1cc(-c2cc(Oc3cnc4ccc(F)cc4c3)ccn2)ccc1C(N)=O [Example 104, 2-ethyl-4-(4-((6-fluoroquinolin-3-yl)oxy)pyridin-2-yl)benzamide] | 6.00 to 7.00 | 110
CCc1cc(-c2cc(Oc3ccc4cnn(C)c4c3)cc(N)n2)ccc1C(N)=O [Example 18, 4-(6-amino-4-((1-methyl-1H-indazol-6-yl)oxy)pyridin-2-yl)-2-ethylbenzamide] | 6.00 to 7.00 | 107
Cc1cc(-c2cc(Oc3ccc4c(N)nn(C)c4c3)ccn2)ccc1C(N)=O [Example 49, 4-(4-((3-amino-1-methyl-1H-indazol-6-yl)oxy)pyridin-2-yl)-2-methylbenzamide] | 6.00 to 7.00 | 53
CCc1cc(-c2cc(Oc3cnc4c(C(F)(F)F)nn(C)c4c3)ccn2)ccc1C(N)=O [Example 29, 2-ethyl-4-(4-((1-methyl-3-(trifluoromethyl)-1H-pyrazolo[4,3-b]pyridin-6-yl)oxy)pyridin-2-yl)benzamide] | 6.00 to 7.00 | 84
Cc1cc(-c2cc(Oc3ccc4ncccc4c3)ccn2)ccc1C(N)=O [Example 74, 2-methyl-4-(4-(quinolin-6-yloxy)pyridin-2-yl)benzamide] | 6.00 to 7.00 | 95
CCc1cc(-c2cc(Oc3cnc4c(c3)c(C(F)(F)F)nn4C)cc3nccn23)ccc1C(N)=O [Example 77, 2-ethyl-4-(7-((1-methyl-3-(trifluoromethyl)-1H-pyrazolo[3,4-b]pyridin-5-yl)oxy)imidazo[1,2-a]pyridin-5-yl)benzamide] | 6.00 to 7.00 | 75
Cc1cc(-c2cc(Oc3ccc4ncncc4c3)ccn2)ccc1C(N)=O [Example 124, 2-methyl-4-(4-(quinazolin-6-yloxy)pyridin-2-yl)benzamide] | 5.70 to 6.00 | 100

The next lines start with the values.

pEC50 | Emax [%] | SMILES
7.00 to 7.60 | 69 | CCc1cc(-c2cc(Oc3cc(F)c4cnn(C)c4c3)cc3nccn23)ccc1C(N)=O [Example 72, 2-ethyl-4-(7-((4-fluoro-1-methyl-1H-indazol-6-yl)oxy)imidazo[1,2-a]pyridin-5-yl)benzamide]
6.00 to 7.00 | 141 | CCc1cc(-c2cc(Oc3ccc4c(c3)c(F)nn4C)ccn2)ccc1C(N)=O [Example 133, 2-ethyl-4-(4-((3-fluoro-1-methyl-1H-indazol-5-yl)oxy)pyridin-2-yl)benzamide]
6.00 to 7.00 | 123 | Cc1cc(-c2cc(Oc3ccc4c(c3)CCC4=O)ccn2)ccc1C(N)=O [Example 84, 2-methyl-4-(4-((1-oxo-2,3-dihydro-1H-inden-5-yl)oxy)pyridin-2-yl)benzamide]
6.00 to 7.00 | 95 | CCc1cc(-c2cc(Oc3cnc4cc(F)c(F)cc4c3)ccn2)ccc1C(N)=O [Example 113, 4-(4-((6,7-difluoroquinolin-3-yl)oxy)pyridin-2-yl)-2-ethylbenzamide]
5.70 to 6.00 | 91 | Cc1cc(-c2cccc(Oc3ccc4cnn(C)c4c3)n2)ccc1C(N)=O [Example 9, 2-methyl-4-(6-((1-methyl-1H-indazol-6-yl)oxy)pyridin-2-yl)benzamide]
6.00 to 7.00 | 95 | Cc1cc(-c2cc(Oc3ccc4c(c3)OC(F)(F)O4)ccn2)ccc1C(N)=O [Example 89, 4-(4-((2,2-difluorobenzo[d][1,3]dioxol-5-yl)oxy)pyridin-2-yl)-2-methylbenzamide]
6.00 to 7.00 | 83 | Cc1nn(C)c2cc(Oc3ccnc(-c4ccc(C(N)=O)c(C(F)(F)F)c4)c3)ccc12 [Example 42, 4-(4-((1,3-dimethyl-1H-indazol-6-yl)oxy)pyridin-2-yl)-2-(trifluoromethyl)benzamide]
6.00 to 7.00 | 88 | Cn1ncc2ccc(Oc3ccnc(-c4ccc(C(N)=O)c(C(F)(F)F)c4)c3)cc21 [Example 47, 4-(4-((1-methyl-1H-indazol-6-yl)oxy)pyridin-2-yl)-2-(trifluoromethyl)benzamide]
6.00 to 7.00 | 107 | Cc1cc(-c2cc(Oc3cnc4c(c3)c(C)nn4C)cc(N)n2)ccc1C(N)=O [Example 23, 4-(6-amino-4-((1,3-dimethyl-1H-pyrazolo[3,4-b]pyridin-5-yl)oxy)pyridin-2-yl)-2-methylbenzamide]
7.00 to 7.60 | 108 | Cc1cc(-c2cc(Oc3ccc4c(c3)c(C)nn4C)ccn2)ccc1C(N)=O [Example 58, 4-(4-((1,3-dimethyl-1H-indazol-5-yl)oxy)pyridin-2-yl)-2-methylbenzamide]
6.00 to 7.00 | 132 | CCc1cc(-c2cc(Oc3cc(F)c4ncccc4c3)ccn2)ccc1C(N)=O [Example 97, 2-ethyl-4-(4-((8-fluoroquinolin-6-yl)oxy)pyridin-2-yl)benzamide]
6.00 to 7.00 | 121 | CCc1cc(-c2cc(Oc3cnc4c(c3)C=C(F)CC4)ccn2)ccc1C(N)=O [Example 122, 2-ethyl-4-(4-((6-fluoro-7,8-dihydroquinolin-3-yl)oxy)pyridin-2-yl)benzamide]
5.70 to 6.00 | 78 | Cc1cc(-c2cc(Oc3cnc4c(c3)C=C(F)CC4)ccn2)ccc1C(N)=O [Example 121, 4-(4-((6-fluoro-7,8-dihydroquinolin-3-yl)oxy)pyridin-2-yl)-2-methylbenzamide]
6.00 to 7.00 | 91 | NC(=O)c1ccc(-c2cc(Oc3ccc4ncccc4c3)ccn2)cc1Cl [Example 76, 2-chloro-4-(4-(quinolin-6-yloxy)pyridin-2-yl)benzamide]
6.00 to 7.00 | 70 | CCNC(=O)c1ccc(-c2cc(Oc3ccc4cnn(C)c4c3)ccn2)cc1C [Example 63, N-ethyl-2-methyl-4-(4-((1-methyl-1H-indazol-6-yl)oxy)pyridin-2-yl)benzamide]
6.00 to 7.00 | 66 | CCc1cc(-c2cc(Oc3ccc4ccncc4c3)ccn2)ccc1C(N)=O [Example 73, 2-ethyl-4-(4-(162yridine162ine-7-yloxy)162yridine-2-yl)benzamide]
7.00 to 7.60 | 110 | CCc1cc(-c2cc(Oc3ccc4c(F)nn(C)c4c3)ccn2)ccc1C(N)=O [Example 132, 2-ethyl-4-(4-((3-fluoro-1-methyl-1H-indazol-6-yl)oxy)pyridin-2-yl)benzamide]
6.00 to 7.00 | 120 | Cc1cc(-c2cc(Oc3cc(F)c4ncccc4c3)ccn2)ccc1C(N)=O [Example 98, 4-(4-((8-fluoroquinolin-6-yl)oxy)pyridin-2-yl)-2-methylbenzamide]
